According to patent US9969742B2, “Imidazotriazinone compounds” (Ironwood Pharmaceuticals, Inc., priority 2012, dated 2018):
Read-outs that look alike come from different tables or passages of the source. One block for each compound: values may come before it.

What was measured:
Assay type in all cases: biochemical
PDE1A = molecular target: T1, PDE1A (Homo sapiens, UniProt P54750); test: Phosphodiesterase enzyme screening assay, PDE1A
T1 construct: purchased Reaction Biology Corporation, Malvern, Pa
Method in brief: (§1)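 Enzyme activity is measured as conversion of fluorescent cGMP (4.0 μM) to 5′-GMP after 1 h at R.T. in pH 7.5 HEPES/MgCl2/DTT buffer. Product is separated from substrate by microfluidic mobility shift, and inhibition is derived by comparison with control wells.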

PDE9A2 = molecular target: T2, PDE9A2 (Homo sapiens, UniProt O76083); test: Phosphodiesterase enzyme screening assay, PDE9A2
T2 construct: purchased Reaction Biology Corporation, Malvern, Pa
Method in brief: as §1

PDE1B = molecular target: T3, PDE1B (Homo sapiens, UniProt Q01064); test: Phosphodiesterase enzyme screening assay, PDE1B
T3 construct: purchased Reaction Biology Corporation, Malvern, Pa
Method in brief: as §1

[1] = ratio of IC50 values PDE1A vs PDE9A2, value greater than 1 indicates greater selectivity for PDE9A2
[2] = IC50 band, 4.0 μM cGMP substrate, 1 hour at R.T.
[3] = ratio of IC50 values PDE1B vs PDE9A2, value greater than 1 indicates greater selectivity for PDE9A2
[4] = Table 1, ratio of IC50 values, value greater than 1 indicates greater selectivity for PDE9A2
[5] = ratio of IC50 values, PDE1A versus PDE9A2, value greater than 1 = greater selectivity for PDE9A2
[6] = Table 3, 4.0 μM cGMP substrate, 1 hour at R.T., read-out: Band (PDE9A2 IC50)
[7] = ratio of IC50 values, PDE1B versus PDE9A2, value greater than 1 = greater selectivity for PDE9A2
[8] = ratio of IC50 values PDE1A / PDE9A2, value greater than 1 = greater selectivity for PDE9A2
[9] = 4.0 μM cGMP substrate, 1 hour at R.T., read-out: Band (PDE9A2 IC50)
[10] = ratio of IC50 values PDE1B / PDE9A2, value greater than 1 = greater selectivity for PDE9A2
[11] = ratio of IC50 values, value greater than 1 indicates greater selectivity for PDE9A2
[12] = Table 2, ratio of IC50 values, value greater than 1 indicates greater selectivity for PDE9A2
[13] = Table 2, 10 concentrations, 4.0 μM cGMP substrate, 1 hour at R.T., read-out: Band (PDE9A2 IC50)

T2 sequence (O76083 1-533 isoform O76083-2): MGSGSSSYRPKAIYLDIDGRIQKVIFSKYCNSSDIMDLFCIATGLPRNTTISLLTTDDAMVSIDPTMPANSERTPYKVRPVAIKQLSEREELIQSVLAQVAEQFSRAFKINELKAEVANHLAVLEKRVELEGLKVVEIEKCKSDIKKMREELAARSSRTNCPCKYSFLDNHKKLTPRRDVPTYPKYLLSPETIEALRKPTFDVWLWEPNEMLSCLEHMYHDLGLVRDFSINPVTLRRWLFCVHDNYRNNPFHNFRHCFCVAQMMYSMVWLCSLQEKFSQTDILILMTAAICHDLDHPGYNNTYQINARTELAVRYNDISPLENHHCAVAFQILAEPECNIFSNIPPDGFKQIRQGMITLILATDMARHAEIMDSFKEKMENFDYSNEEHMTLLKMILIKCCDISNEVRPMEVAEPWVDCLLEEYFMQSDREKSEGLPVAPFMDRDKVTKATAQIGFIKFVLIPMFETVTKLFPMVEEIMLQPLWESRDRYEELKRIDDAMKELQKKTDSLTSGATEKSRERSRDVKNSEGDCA
T3 sequence (Q01064 whole entry): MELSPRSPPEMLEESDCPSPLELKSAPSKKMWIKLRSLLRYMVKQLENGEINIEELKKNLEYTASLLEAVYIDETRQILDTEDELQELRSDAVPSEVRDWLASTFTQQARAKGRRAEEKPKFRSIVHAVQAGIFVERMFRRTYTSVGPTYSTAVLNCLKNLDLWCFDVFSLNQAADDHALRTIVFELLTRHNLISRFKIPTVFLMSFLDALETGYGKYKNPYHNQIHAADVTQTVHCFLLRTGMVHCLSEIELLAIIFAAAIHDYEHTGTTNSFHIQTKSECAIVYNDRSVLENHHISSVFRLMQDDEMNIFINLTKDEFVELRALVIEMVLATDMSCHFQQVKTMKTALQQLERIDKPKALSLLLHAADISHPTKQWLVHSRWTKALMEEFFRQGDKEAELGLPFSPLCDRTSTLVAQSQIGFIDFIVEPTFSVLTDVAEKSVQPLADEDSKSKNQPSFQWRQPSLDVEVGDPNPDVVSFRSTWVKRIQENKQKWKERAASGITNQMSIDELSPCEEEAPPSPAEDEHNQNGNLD
T1 sequence (P54750 whole entry): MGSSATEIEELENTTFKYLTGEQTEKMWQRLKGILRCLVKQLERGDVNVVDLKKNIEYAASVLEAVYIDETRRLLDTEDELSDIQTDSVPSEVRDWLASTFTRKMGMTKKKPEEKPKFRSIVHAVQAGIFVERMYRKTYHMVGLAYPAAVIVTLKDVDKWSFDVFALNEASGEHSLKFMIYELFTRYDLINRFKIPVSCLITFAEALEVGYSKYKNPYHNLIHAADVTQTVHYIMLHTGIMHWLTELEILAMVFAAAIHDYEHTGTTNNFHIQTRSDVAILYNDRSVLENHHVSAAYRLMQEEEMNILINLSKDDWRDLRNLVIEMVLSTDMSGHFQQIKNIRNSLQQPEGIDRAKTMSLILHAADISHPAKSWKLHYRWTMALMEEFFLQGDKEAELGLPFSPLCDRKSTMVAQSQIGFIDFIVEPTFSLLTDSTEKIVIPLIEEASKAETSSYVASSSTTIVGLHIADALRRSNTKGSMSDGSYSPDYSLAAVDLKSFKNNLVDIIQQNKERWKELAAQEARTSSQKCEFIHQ

PDE1A selectivity (versus PDE9A2) (PDE1A; [5]): 317
IC50 (PDE9A2; [6]): < 1 µM
PDE1B selectivity (versus PDE9A2) (PDE1B; [7]): 607
SMILES: COc1cc(CN2CC(C)C(c3nn4c(C5CCOCC5)ncc4c(=O)[nH]3)C2)ccn1 (single isomer, unassigned; (+)) [(+)-2-((3,4-trans)-1-((2-methoxypyridin-4-yl)methyl)-4-methylpyrrolidin-3-yl)-7-(tetrahydro-2H-pyran-4-yl)imidazo[5,1-f][1,2,4]triazin-4(3H)-one]

PDE1A selectivity (versus PDE9A2) (PDE1A; [5]): 466
IC50 (PDE9A2; [6]): < 1 µM
PDE1B selectivity (versus PDE9A2) (PDE1B; [7]): 456
SMILES: COc1ccnc(CN2CC(C)C(c3nn4c(C5CCOCC5)ncc4c(=O)[nH]3)C2)c1 (single isomer, unassigned; (+)) [(+)-2-((3,4-trans)-1-((4-methoxypyridin-2-yl)methyl)-4-methylpyrrolidin-3-yl)-7-(tetrahydro-2H-pyran-4-yl)imidazo[5,1-f][1,2,4]triazin-4(3H)-one]

PDE1A selectivity (versus PDE9A2) (PDE1A; [8]): 107
IC50 (PDE9A2; [9]): < 1 µM
PDE1B selectivity (versus PDE9A2) (PDE1B; [10]): 184
SMILES: CC1CN(Cc2ccc(Cl)cn2)CC1c1nn2c(C3CCOCC3)ncc2c(=O)[nH]1 (single isomer, unassigned; (+)) [(+)-2-((3,4-trans)-1-((5-chloropyridin-2-yl)methyl)-4-methylpyrrolidin-3-yl)-7-(tetrahydro-2H-pyran-4-yl)imidazo[5,1-f][1,2,4]triazin-4(3H)-one]

PDE1A selectivity (versus PDE9A2) (PDE1A; [12]): 95
IC50 (PDE9A2; [13]): < 1 µM
PDE1B selectivity (versus PDE9A2) (PDE1B; [12]): 154
SMILES: CC1CN(Cc2ncc(Cl)cn2)CC1c1nn2c(C3CCOCC3)ncc2c(=O)[nH]1 (single isomer, unassigned; (+)) [(+)-2-((3,4-trans)-1-((5-chloropyrimidin-2-yl)methyl)-4-methylpyrrolidin-3-yl)-7-(tetrahydro-2H-pyran-4-yl)imidazo[5,1-f][1,2,4]triazin-4(3H)-one]

PDE1A selectivity (versus PDE9A2) (PDE1A; [5]): 273
IC50 (PDE9A2; [6]): < 1 µM
PDE1B selectivity (versus PDE9A2) (PDE1B; [7]): 377
SMILES: CC1CN(Cc2ccc(F)cn2)CC1c1nn2c(C3CCOCC3)ncc2c(=O)[nH]1 (single isomer, unassigned; (+)) [(+)-2-((3,4-trans)-1-((5-fluoropyridin-2-yl)methyl)-4-methylpyrrolidin-3-yl)-7-(tetrahydro-2H-pyran-4-yl)imidazo[5,1-f][1,2,4]triazin-4(3H)-one]

PDE1A selectivity (versus PDE9A2) (PDE1A; [12]): 133
IC50 (PDE9A2; [13]): < 1 µM
PDE1B selectivity (versus PDE9A2) (PDE1B; [12]): 279
SMILES: CC1CN(Cc2ncc(F)cn2)CC1c1nn2c(C3CCOCC3)ncc2c(=O)[nH]1 (single isomer, unassigned; (+)) [(+)-2-((3,4-trans)-1-((5-fluoropyrimidin-2-yl)methyl)-4-methylpyrrolidin-3-yl)-7-(tetrahydro-2H-pyran-4-yl)imidazo[5,1-f][1,2,4]triazin-4(3H)-one]

The next lines start with the compound.

SMILES: Cc1cc(F)ccc1-c1ncc2c(=O)[nH]c(C3CN(Cc4nc5ccccc5[nH]4)CC3C)nn12 (single isomer, unassigned; (+)) [(+)-2-((3,4-trans)-1-((1H-benzo[d]imidazol-2-yl)methyl)-4-methylpyrrolidin-3-yl)-7-(4-fluoro-2-methylphenyl)imidazo[5,1-f][1,2,4]triazin-4(3H)-one]
PDE1A selectivity (versus PDE9A2) (PDE1A; [1]): 1438
IC50 (PDE9A2; [2]): < 1 µM
PDE1B selectivity (versus PDE9A2) (PDE1B; [3]): 2500

SMILES: Cc1ccc(F)cc1-c1ncc2c(=O)[nH]c(C3CN(Cc4nc5ccccc5[nH]4)CC3C)nn12 (single isomer, unassigned; (+)) [(+)-2-((3,4-trans)-1-((1H-benzo[d]imidazol-2-yl)methyl)-4-methylpyrrolidin-3-yl)-7-(5-fluoro-2-methylphenyl)imidazo[5,1-f][1,2,4]triazin-4(3H)-one]
PDE1A selectivity (versus PDE9A2) (PDE1A; [1]): 89
IC50 (PDE9A2; [2]): < 1 µM
PDE1B selectivity (versus PDE9A2) (PDE1B; [3]): 130

SMILES: Cc1ccccc1-c1ncc2c(=O)[nH]c(C3CN(Cc4nc5ccccc5[nH]4)CC3C)nn12 (single isomer, unassigned; (+)) [(+)-2-((3,4-trans)-1-((1H-benzo[d]imidazol-2-yl)methyl)-4-methylpyrrolidin-3-yl)-7-(o-tolyl)imidazo[5,1-f][1,2,4]triazin-4(3H)-one]
PDE1A selectivity (versus PDE9A2) (PDE1A; ratio of IC50 values, PDE1A versus PDE9A2, value greater than 1 indicates greater selectivity for PDE9A2): 1740
IC50 (PDE9A2; read-out: Band (PDE9A2 IC50)): < 1 µM
PDE1B selectivity (versus PDE9A2) (PDE1B; ratio of IC50 values, PDE1B versus PDE9A2, value greater than 1 indicates greater selectivity for PDE9A2): 2990

SMILES: CCc1ncc(CN2CC(C)C(c3nn4c(C5CCOCC5)ncc4c(=O)[nH]3)C2)cn1 (single isomer, unassigned; (+)) [(+)-2-((3,4-trans)-1-((2-ethylpyrimidin-5-yl)methyl)-4-methylpyrrolidin-3-yl)-7-(tetrahydro-2H-pyran-4-yl)imidazo[5,1-f][1,2,4]triazin-4(3H)-one]
PDE1A selectivity (versus PDE9A2) (PDE1A; [4]): 855
IC50 (PDE9A2; Table 1, 10 concentrations, 4.0 μM cGMP substrate, 1 hour at R.T., read-out: Band (PDE9A2 IC50)): < 1 µM
PDE1B selectivity (versus PDE9A2) (PDE1B; [4]): 1920

SMILES: COc1ncc(CN2CC(C)C(c3nn4c(C5CCOCC5)ncc4c(=O)[nH]3)C2)cn1 (single isomer, unassigned; (+)) [(+)-2-((3,4-trans)-1-((2-methoxypyrimidin-5-yl)methyl)-4-methylpyrrolidin-3-yl)-7-(tetrahydro-2H-pyran-4-yl)imidazo[5,1-f][1,2,4]triazin-4(3H)-one]
PDE1A selectivity (versus PDE9A2) (PDE1A; [8]): 1210
IC50 (PDE9A2; [9]): < 1 µM
PDE1B selectivity (versus PDE9A2) (PDE1B; [10]): 3650

SMILES: CC1CN(CC2CCC(F)(F)CC2)CC1c1nn2c(C3CCOCC3)ncc2c(=O)[nH]1 (single isomer, unassigned; (+)) [(+)-2-((3,4-trans)-1-((4,4-difluorocyclohexyl)methyl)-4-methylpyrrolidin-3-yl)-7-(tetrahydro-2H-pyran-4-yl)imidazo[5,1-f][1,2,4]triazin-4(3H)-one]
PDE1A selectivity (versus PDE9A2) (PDE1A; [11]): 51
IC50 (PDE9A2; read-out: Band (PDE9A2 IC50)): < 1 µM
PDE1B selectivity (versus PDE9A2) (PDE1B; [11]): 68

SMILES: Cc1cc(C)nc(CN2CC(C)C(c3nn4c(C5CCOCC5)ncc4c(=O)[nH]3)C2)n1 (single isomer, unassigned; (+)) [(+)-2-((3,4-trans)-1-((4,6-dimethylpyrimidin-2-yl)methyl)-4-methylpyrrolidin-3-yl)-7-(tetrahydro-2H-pyran-4-yl)imidazo[5,1-f][1,2,4]triazin-4(3H)-one]
PDE1A selectivity (versus PDE9A2) (PDE1A; [12]): 947
IC50 (PDE9A2; [13]): < 1 µM
PDE1B selectivity (versus PDE9A2) (PDE1B; [12]): 767

SMILES: CC1CN(Cc2nccc(N(C)C)n2)CC1c1nn2c(C3CCOCC3)ncc2c(=O)[nH]1 (single isomer, unassigned; (+)) [(+)-2-((3,4-trans)-1-((4-(dimethylamino)pyrimidin-2-yl)methyl)-4-methylpyrrolidin-3-yl)-7-(tetrahydro-2H-pyran-4-yl)imidazo[5,1-f][1,2,4]triazin-4(3H)-one]
PDE1A selectivity (versus PDE9A2) (PDE1A; [12]): 117
IC50 (PDE9A2; [13]): < 1 µM
PDE1B selectivity (versus PDE9A2) (PDE1B; [12]): 177

SMILES: CC1CN(Cc2nccc(C3CC3)n2)CC1c1nn2c(C3CCOCC3)ncc2c(=O)[nH]1 (single isomer, unassigned; (+)) [(+)-2-((3,4-trans)-1-((4-cyclopropylpyrimidin-2-yl)methyl)-4-methylpyrrolidin-3-yl)-7-(tetrahydro-2H-pyran-4-yl)imidazo[5,1-f][1,2,4]triazin-4(3H)-one]
PDE1A selectivity (versus PDE9A2) (PDE1A; [12]): 229
IC50 (PDE9A2; [13]): < 1 µM
PDE1B selectivity (versus PDE9A2) (PDE1B; [12]): 403

SMILES: CC1CN(Cc2ncc(C3CC3)cn2)CC1c1nn2c(C3CCOCC3)ncc2c(=O)[nH]1 (single isomer, unassigned; (+)) [(+)-2-((3,4-trans)-1-((5-cyclopropylpyrimidin-2-yl)methyl)-4-methylpyrrolidin-3-yl)-7-(tetrahydro-2H-pyran-4-yl)imidazo[5,1-f][1,2,4]triazin-4(3H)-one]
PDE1A selectivity (versus PDE9A2) (PDE1A; [12]): 151
IC50 (PDE9A2; [13]): < 1 µM
PDE1B selectivity (versus PDE9A2) (PDE1B; [12]): 670
